Values of other authors, collected in patent US20090182041A1, “CONTROL OF CANCER WITH ANNONACEOUS EXTRACTS” (NATURE'S SUNSHINE PRODUCTS, INC., priority 2002, published 2009).

Columns and labels:
[1] = tested on: NADH oxidase found in the plasma membranes of tumor cells; settings: substantially purified form
[2] = tested on: mitochondrial complex I (NADH: ubiquinone oxidoreductase); settings: substantially purified form

| Compound | inhibition of NADH oxidase in the plasma membranes of tumor cells [1] | inhibition of complex I in the electron transport system in mitochondria [2] |
| --- | --- | --- |
| CCCCCCCCCC[C@@H](O)[C@H]1CC[C@@H]([C@H]2CC[C@H]([C@H](O)CCCCCCCCCC[C@@H](O)CC3=C[C@H](C)OC3=O)O2)O1 [trilobacin] | inhibit | most powerful inhibitors known |
| asimicin | inhibit | most powerful inhibitors known |
| bullatacin | inhibit | most powerful inhibitors known |
